This is an account of results in ChEMBL document CHEMBL5291721, “A preclinical secondary pharmacology resource illuminates target-adverse drug reaction associations of marketed drugs” (Nat Commun, 2023).

In general, AC50 refers to the concentration at which the activity in the assay is half-maximal.

Assay [1] has as its target T1, Androgen receptor (Rattus norvegicus, UniProt P15207).
T1 sequence (P15207 whole entry): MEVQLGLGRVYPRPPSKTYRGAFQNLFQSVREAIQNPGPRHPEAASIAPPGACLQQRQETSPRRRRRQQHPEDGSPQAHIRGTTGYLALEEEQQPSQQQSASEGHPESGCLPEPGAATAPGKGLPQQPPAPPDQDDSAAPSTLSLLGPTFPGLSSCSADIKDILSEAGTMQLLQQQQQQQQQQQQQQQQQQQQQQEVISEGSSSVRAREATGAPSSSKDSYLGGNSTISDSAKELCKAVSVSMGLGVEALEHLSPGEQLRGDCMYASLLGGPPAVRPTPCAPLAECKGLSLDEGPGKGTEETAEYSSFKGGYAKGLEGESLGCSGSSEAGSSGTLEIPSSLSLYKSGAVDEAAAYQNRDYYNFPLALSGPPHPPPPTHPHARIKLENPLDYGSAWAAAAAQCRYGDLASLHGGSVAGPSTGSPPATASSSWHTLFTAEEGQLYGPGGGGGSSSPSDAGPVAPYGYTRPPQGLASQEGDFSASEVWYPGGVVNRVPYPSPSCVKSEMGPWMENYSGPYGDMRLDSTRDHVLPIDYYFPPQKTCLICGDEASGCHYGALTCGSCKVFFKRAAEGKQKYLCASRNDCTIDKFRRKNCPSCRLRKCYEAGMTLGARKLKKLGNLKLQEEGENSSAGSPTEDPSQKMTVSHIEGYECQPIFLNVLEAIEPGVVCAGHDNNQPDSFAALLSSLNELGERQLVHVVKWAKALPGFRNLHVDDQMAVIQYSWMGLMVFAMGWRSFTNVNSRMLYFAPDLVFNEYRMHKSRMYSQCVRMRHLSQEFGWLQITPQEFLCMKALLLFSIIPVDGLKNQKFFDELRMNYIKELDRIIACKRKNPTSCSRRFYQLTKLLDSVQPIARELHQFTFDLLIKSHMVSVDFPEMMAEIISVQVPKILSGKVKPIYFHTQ

Assay [2] deals with Voltage-dependent L-type calcium channel subunit alpha-1C (Homo sapiens, UniProt Q13936). Type of assay: functional, cell-based.
For assay [3], the target named is Gamma-aminobutyric acid type B receptor subunit 1 (Homo sapiens, UniProt Q9UBS5).
For assay [4], the target named is Synaptic vesicular amine transporter (Rattus norvegicus, UniProt Q01827). In kind it is functional.
Assay [5] addresses T2, Peroxisome proliferator-activated receptor alpha (Homo sapiens, UniProt Q07869).
T2 sequence (Q07869 whole entry): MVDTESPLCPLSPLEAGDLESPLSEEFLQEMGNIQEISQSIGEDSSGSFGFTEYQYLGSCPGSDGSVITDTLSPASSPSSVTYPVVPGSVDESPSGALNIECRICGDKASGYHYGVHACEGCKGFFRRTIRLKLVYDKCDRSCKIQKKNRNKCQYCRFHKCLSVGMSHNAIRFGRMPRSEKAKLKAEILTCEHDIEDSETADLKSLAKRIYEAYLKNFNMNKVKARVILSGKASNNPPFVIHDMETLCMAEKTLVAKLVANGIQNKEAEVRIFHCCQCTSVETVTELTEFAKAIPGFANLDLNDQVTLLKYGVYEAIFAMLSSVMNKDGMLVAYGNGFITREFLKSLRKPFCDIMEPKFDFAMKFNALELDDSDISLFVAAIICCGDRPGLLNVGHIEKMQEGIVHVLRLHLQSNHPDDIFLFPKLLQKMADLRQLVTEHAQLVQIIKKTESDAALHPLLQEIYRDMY
Type of assay: functional.

In assay [6] the target is T2, Peroxisome proliferator-activated receptor alpha. In kind it is functional. The source holds these as a separate data set.
Assay [7] deals with 5-hydroxytryptamine receptor 6 (Homo sapiens, UniProt P50406).
In assay [8] the target is T1, Androgen receptor. In kind it is functional.
A further assay has as its target D(1B) dopamine receptor (Homo sapiens, UniProt P21918).
Assay [9] addresses 5-hydroxytryptamine receptor 5A (Homo sapiens, UniProt P47898).
Assay [10] addresses Rod cGMP-specific 3',5'-cyclic phosphodiesterase subunit alpha (Homo sapiens, UniProt P16499). Type of assay: functional.
Another assay deals with Acetylcholinesterase (Homo sapiens, UniProt P22303). In kind it is functional.
The target in the next assay is T3, Thromboxane A2 receptor (Homo sapiens, UniProt P21731).
T3 sequence (P21731 whole entry): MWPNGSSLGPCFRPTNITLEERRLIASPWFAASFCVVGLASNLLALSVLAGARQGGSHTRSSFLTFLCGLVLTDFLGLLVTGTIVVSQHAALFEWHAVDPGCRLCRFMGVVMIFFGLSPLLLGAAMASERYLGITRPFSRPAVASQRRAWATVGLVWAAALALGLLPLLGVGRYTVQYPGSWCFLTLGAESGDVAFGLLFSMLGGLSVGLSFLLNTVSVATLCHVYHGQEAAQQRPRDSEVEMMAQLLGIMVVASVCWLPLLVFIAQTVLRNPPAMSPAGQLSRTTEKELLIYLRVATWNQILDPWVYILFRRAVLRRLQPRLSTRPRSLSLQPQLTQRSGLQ
Type of assay: functional, cell-based.

The target in another assay is T4, Adenosine receptor A1 (Homo sapiens, UniProt P30542).
T4 sequence (P30542 whole entry): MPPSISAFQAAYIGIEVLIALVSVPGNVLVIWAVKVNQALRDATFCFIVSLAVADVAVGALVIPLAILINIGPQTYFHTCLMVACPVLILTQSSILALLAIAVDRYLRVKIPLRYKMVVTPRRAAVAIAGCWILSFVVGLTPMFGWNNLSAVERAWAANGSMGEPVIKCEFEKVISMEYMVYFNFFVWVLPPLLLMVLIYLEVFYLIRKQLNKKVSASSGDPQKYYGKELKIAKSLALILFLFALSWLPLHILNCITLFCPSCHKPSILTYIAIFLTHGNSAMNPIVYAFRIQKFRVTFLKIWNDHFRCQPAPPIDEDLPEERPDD
Further: assay procedure not described here.

5-hydroxytryptamine receptor 6, sequence (P50406 whole entry): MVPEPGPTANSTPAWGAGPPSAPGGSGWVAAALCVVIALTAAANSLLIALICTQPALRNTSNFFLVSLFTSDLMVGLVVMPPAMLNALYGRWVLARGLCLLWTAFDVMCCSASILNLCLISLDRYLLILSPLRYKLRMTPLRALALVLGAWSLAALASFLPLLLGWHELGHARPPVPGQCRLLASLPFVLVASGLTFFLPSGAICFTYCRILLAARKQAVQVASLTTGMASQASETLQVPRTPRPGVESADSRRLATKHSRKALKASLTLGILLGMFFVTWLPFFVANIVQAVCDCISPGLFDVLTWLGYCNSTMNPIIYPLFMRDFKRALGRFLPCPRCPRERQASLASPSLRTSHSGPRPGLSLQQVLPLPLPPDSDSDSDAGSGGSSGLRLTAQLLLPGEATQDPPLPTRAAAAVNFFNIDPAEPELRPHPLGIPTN
Gamma-aminobutyric acid type B receptor subunit 1, sequence (Q9UBS5 whole entry): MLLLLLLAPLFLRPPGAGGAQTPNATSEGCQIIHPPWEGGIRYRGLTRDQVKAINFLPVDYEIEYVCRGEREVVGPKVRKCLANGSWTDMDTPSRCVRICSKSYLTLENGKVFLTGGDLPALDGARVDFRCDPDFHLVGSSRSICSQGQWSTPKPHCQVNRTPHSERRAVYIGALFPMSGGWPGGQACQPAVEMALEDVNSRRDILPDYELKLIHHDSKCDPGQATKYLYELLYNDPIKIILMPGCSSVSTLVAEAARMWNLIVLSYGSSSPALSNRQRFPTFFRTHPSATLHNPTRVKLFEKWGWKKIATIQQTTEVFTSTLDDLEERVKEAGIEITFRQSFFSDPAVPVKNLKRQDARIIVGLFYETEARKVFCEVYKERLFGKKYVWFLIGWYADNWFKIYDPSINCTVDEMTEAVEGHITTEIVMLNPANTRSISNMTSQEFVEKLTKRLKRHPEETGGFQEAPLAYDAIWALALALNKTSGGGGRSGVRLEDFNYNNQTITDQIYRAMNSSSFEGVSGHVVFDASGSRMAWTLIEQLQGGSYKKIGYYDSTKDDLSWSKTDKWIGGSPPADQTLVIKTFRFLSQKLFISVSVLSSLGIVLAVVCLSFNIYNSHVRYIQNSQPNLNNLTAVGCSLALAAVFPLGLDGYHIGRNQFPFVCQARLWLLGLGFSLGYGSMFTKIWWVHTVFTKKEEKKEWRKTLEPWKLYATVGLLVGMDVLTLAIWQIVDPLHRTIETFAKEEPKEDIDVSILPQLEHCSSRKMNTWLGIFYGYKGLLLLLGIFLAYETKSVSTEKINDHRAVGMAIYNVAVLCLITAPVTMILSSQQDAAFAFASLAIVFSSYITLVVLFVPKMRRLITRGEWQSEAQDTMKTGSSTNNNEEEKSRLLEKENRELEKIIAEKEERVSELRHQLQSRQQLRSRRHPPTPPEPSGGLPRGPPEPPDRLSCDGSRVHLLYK
Voltage-dependent L-type calcium channel subunit alpha-1C, sequence (Q13936 whole entry): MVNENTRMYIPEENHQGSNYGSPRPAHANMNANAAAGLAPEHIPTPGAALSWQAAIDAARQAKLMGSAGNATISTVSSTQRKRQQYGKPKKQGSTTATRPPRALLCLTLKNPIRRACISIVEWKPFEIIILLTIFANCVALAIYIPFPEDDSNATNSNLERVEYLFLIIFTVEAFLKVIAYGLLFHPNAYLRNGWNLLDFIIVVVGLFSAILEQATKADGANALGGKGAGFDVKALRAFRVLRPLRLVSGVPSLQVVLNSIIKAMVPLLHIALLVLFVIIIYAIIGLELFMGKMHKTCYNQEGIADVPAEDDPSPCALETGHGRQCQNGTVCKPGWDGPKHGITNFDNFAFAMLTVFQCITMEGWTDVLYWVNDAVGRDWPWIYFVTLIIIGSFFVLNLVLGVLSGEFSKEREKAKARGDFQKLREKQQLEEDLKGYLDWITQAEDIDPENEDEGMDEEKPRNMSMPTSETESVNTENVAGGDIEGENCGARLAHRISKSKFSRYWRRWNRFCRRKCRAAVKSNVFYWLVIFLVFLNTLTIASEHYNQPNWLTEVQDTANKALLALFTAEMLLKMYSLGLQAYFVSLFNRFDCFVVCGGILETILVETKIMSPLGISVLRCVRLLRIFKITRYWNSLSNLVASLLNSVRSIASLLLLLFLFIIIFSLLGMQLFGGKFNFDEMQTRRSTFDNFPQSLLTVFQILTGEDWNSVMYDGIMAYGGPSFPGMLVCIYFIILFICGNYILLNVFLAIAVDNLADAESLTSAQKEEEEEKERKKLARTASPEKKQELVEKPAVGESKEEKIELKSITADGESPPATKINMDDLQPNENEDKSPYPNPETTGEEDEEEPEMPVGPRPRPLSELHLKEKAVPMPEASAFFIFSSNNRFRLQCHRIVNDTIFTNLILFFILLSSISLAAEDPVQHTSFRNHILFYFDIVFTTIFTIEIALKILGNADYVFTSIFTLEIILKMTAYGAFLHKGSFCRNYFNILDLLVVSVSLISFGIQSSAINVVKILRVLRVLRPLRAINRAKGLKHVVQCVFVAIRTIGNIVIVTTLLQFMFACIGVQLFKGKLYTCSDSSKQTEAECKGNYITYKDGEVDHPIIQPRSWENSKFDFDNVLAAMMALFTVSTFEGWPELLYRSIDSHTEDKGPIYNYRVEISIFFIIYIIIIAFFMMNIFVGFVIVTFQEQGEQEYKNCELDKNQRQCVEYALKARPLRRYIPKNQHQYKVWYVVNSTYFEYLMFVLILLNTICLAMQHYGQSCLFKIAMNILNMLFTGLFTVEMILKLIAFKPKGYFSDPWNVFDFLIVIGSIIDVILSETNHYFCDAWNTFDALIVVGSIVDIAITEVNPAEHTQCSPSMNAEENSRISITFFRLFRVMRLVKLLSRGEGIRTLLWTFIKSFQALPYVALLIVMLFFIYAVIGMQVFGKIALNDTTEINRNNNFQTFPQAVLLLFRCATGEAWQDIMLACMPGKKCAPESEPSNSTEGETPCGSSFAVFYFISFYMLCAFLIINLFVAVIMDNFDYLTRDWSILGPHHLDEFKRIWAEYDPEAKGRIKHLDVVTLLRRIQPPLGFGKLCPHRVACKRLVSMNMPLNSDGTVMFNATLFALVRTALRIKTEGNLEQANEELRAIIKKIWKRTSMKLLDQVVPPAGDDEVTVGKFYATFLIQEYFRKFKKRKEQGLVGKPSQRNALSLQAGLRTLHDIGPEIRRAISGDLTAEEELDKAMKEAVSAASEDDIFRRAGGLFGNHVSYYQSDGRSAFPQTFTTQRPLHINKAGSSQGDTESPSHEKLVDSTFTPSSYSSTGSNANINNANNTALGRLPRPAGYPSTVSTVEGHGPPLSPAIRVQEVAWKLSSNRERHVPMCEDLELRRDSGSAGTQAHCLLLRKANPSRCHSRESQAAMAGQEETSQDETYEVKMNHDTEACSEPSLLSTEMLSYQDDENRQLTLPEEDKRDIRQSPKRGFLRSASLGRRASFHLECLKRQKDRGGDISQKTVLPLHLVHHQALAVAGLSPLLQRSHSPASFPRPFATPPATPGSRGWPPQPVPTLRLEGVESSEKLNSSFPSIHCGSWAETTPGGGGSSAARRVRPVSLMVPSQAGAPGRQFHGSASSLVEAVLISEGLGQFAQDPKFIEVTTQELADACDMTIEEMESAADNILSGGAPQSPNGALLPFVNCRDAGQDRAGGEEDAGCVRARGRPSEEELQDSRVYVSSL
Rod cGMP-specific 3',5'-cyclic phosphodiesterase subunit alpha, sequence (P16499 whole entry): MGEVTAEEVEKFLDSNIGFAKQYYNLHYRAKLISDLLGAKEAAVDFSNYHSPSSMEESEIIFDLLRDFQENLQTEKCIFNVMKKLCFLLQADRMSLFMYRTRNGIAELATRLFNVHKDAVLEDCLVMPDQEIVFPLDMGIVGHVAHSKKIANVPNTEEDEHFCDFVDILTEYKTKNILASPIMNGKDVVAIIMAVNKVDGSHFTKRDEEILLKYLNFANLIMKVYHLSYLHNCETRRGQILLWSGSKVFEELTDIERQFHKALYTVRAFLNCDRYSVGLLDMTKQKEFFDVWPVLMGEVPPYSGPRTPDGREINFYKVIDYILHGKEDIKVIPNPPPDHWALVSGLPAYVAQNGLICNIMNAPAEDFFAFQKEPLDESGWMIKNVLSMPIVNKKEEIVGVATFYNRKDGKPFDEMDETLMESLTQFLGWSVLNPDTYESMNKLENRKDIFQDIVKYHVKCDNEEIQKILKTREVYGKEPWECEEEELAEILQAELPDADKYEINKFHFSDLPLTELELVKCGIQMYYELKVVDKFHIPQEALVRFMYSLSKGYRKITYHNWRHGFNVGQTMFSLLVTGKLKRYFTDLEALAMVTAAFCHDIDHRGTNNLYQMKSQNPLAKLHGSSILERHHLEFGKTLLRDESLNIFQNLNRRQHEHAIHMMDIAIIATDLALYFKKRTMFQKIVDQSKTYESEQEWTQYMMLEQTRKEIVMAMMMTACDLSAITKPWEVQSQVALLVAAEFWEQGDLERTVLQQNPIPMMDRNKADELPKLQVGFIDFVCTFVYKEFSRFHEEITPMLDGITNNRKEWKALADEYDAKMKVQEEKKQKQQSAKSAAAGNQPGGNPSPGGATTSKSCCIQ
5-hydroxytryptamine receptor 5A, sequence (P47898 whole entry): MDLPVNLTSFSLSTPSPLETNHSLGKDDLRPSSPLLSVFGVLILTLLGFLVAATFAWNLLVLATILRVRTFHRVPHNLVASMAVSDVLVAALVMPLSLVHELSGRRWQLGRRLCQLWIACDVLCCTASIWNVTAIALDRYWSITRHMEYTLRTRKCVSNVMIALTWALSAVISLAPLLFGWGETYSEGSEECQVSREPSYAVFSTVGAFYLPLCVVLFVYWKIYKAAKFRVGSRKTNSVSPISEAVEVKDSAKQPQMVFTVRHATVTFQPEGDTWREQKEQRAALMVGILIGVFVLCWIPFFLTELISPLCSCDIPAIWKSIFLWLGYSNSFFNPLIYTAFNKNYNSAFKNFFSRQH

On to `CO[C@H]1C[C@@H]2CC[C@@H](C)[C@@](O)(O2)C(=O)C(=O)N2CCCC[C@H]2C(=O)O[C@H]([C@H](C)C[C@@H]2CC[C@@H](O)[C@H](OC)C2)CC(=O)[C@H](C)/C=C(\C)[C@@H](O)[C@@H](OC)C(=O)[C@H](C)C[C@H](C)/C=C/C=C/C=C/1C` [SIROLIMUS], for which the AC50 is 11.9 µM at Androgen receptor [1], over 50 µM in assay [2], over 10 µM in [3] and 23 µM in assay [4].
In the case of `CN1C(C(=O)Nc2ccccn2)=C(O)c2sc(Cl)cc2S1(=O)=O` [LORNOXICAM], the AC50 (at Androgen receptor [1]; in assay [5]; in assay [6]) was over 30 µM throughout.
In the case of `CCC(C)n1ncn(-c2ccc(N3CCN(c4ccc(OCC5COC(Cn6cncn6)(c6ccc(Cl)cc6Cl)O5)cc4)CC3)cc2)c1=O` (configuration not stated) [ITRACONAZOLE], the AC50 in assay [3] was over 10 µM; in assay [7], over 10 µM; in assay [5] it was over 30 µM; in assay [6] it was over 30 µM.
Take `Cc1c(C(=O)NN2CCCCC2)nn(-c2ccc(Cl)cc2Cl)c1-c1ccc(Cl)cc1` [RIMONABANT]: the AC50 on Androgen receptor [8] was over 30 µM; on Androgen receptor [1], over 30 µM; on D(1B) dopamine receptor it was over 10 µM; in [9], over 10 µM; in assay [7], over 10 µM; in assay [10], over 10 µM. Also, the AC50 (in assay [5]; in assay [6]; at Acetylcholinesterase; on Thromboxane A2 receptor) was over 30 µM each time.
Regarding `CC(=O)Nc1ccc(O)cc1` [ACETAMINOPHEN], the AC50 (on Androgen receptor [8]; in assay [5]; in [6]) was over 30 µM in each case.
With `CCC1=C(C)CN(C(=O)NCCc2ccc(S(=O)(=O)NC(=O)N[C@H]3CC[C@H](C)CC3)cc2)C1=O` [GLIMEPIRIDE], the concentration at half-maximal activity (AC50) (at Adenosine receptor A1; in assay [5]; in assay [6]) was over 30 µM each time.
